For data set [1], the system named is central effects of 5-hydroxytryptophan. The data set can be described thus: Potentiation of the central effects of 5-hydroxytryptophan (5-HTP). Particulars: Mus musculus, ip; Swiss mice, I.P., 30 minutes before 300 mg/kg 5-HTP I.P.; observed 30 min later for 1 min; read-out: Potentiation of the 5-HTP ED50 DE50. The class given is in vivo. As to the method:
This potentiation objectifying the axonal blocking of the reabsorption of the seratonin at the serotoninergic nerve ends was studied by the method described by T. M. Pugsley and […] The mice are observed 30 min later, for 1 min, during which the following sterotyped movements are classified: extension of the hind paws, trembling, excitement, head shaking.

Data set [2] in a line: Acute oral toxicity, lethal doses 50 (LD50). As to conditions: mouse, in vivo.

The term ED50 denotes the dose that gives a 50% effect, or the effect in half of the subjects. By LD50 is commonly meant the dose expected to kill half of the subjects tested. Low values mean a more toxic substance, high ones a less toxic substance.

Counter-ions that a name gives are not always drawn.

Take `O=c1c2ccccc2nnn1CCCN1CCN(c2ccccc2Cl)CC1` [Example 6, [[(Chloro-2 phenyl-4 piperazinyl-1]-3 propyl]3-3H-benzotriazine-1,2,3 one 4, hydrochloride]: the ED50 in data set [1] worked out at 12 mg/kg. `Cc1ccccc1N1CCN(CCCn2nnc3ccccc3c2=O)CC1` [Example 9, [[(Methyl-2 phenyl)-4 piperazinyl-1]-3 propyl]-3-3H-benzotriazine-1,2,3 one-4 hydrochloride]: in data set [1], the ED50 is 5 mg/kg. Same read-out and setting: the figure for `O=c1c2cc(Cl)ccc2nnn1CCCN1CCN(c2ccccc2)CC1` [Example 28, Chloro-6[(phenyl-4 piperazinyl-1)-3 propyl]-3-3H-benzotriazine-1,2,3 one-4 dihyrochloride] is 5 mg/kg. On the same count and under the same terms, the figure for `O=c1c2ccccc2nnn1CCCN1CCN(c2ccc(F)c(Cl)c2)CC1` [Example 27, [[(Chloro-3 fluoro-4 phenyl)-4 piperazinyl-1]-3 propyl]-3-3H-benzotriazine-1,2,3 one-4 hydrochloride] is 8 mg/kg; for `COc1ccc(N2CCN(CCCn3nnc4ccccc4c3=O)CC2)cc1OC` [Example 29, [[(Dimethoxy-3,4 phenyl)-4 piperazinyl-1]-3 propyl]-3-3H-benzotriazine-1,2,3 one-4 dihydrochloride] it is 12 mg/kg; for `COc1cccc(N2CCN(CCCn3nnc4ccccc4c3=O)CC2)c1` [Example 15, [[(Methoxy-3 phenyl)-4 piperazinyl-1]-3 propyl]-3-3H-benzotriazine-1,2,3 one-4] it is 9 mg/kg. For `O=c1c2ccc(Cl)cc2nnn1CCCN1CCN(c2cccc(Cl)c2)CC1` [Example 19, Chloro-7 [[(chloro-3 phenyl)-4 piperazinyl-1]-3 propyl]-3-3H-benzotriazine-1,2,3 one-4 hydrochloride], the ED50 in data set [1] is 10 mg/kg.

`O=c1c2ccccc2nnn1CCCN1CCN(c2ccccc2)CC1` [Example 11, [(Phenyl-4 piperazinyl-1)-3 propyl]-3-3H-benzotriazine-1,2,3 one-4 hydrochloride]: the 50% lethal dose (LD50) in data set [2] stood at 1000 mg/kg. For the same compound, the ED50 in data set [1] was found to be 8 mg/kg. On the same counts, the results for `O=c1c2ccccc2nnn1CCCN1CCN(c2cccc(F)c2)CC1` [Example 10, [[(Fluoro-3phenyl)-4 piperazinyl-1]-3 propyl]-3H-benzotriazine-1,2,3 one-4, hydrochloride] are 1500 mg/kg and 14 mg/kg.

Consider `O=c1c2ccsc2nnn1CCCN1CCN(c2cccc(Cl)c2)CC1` [Example 23, [[(Chloro-3 phenyl)-4-piperazinyl-1]3 propyl]-3-3H-thieno[2,3-d]triazine-1,2,3 one-4 hydrochloride], for which, in data set [2], the LD50 stood at 1060 mg/kg. Moreover, the ED50 in data set [1] worked out at 3 mg/kg. `O=c1c2ccccc2nnn1CCCN1CCN(c2cccc(Cl)c2)CC1` [Example 1, [[(chloro-3 phenyl)-4 piperazinyl-1]-3 propyl]-3-3H-benzotriazine-1,2,3 one-4, hydrochloride] had an LD50 in data set [2] of over 3200 mg/kg. In data set [1], the ED50 was found to be 3 mg/kg. `COc1ccc(N2CCN(CCCn3nnc4ccccc4c3=O)CC2)cc1` [Example 16, [[(Methoxy-4 phenyl)-4 piperazinyl-1]-3propyl]-3-3H-benzotriazine-1,2,3 one-4]: in data set [1], the ED50 came to 11 mg/kg. Regarding `Cl.O=c1n(CCCN2CCN(c3cccc(Cl)c3)CC2)nc2ccccn12` [Trazodone Hydrochloride, 2-[3-[4-(3-chlorophenyl)-1-piperazinyl]propyl]-1,2,4-triazolo[4,3-a]pyridin-3 (2H)-one hydrochloride, reference compound], the LD50 in data set [2] is 650 mg/kg. In the case of `Cc1ccc2nnn(CCCN3CCN(c4cccc(Cl)c4)CC3)c(=O)c2c1` [Example 20, [[(Chloro-3 phenyl)-1 piperazinyl-1]-3 propyl]-3 methyl-6-3H-benzotriazine-1,2,3 one-4, hydrochloride], in data set [2], the median lethal dose (LD50) was over 3200 mg/kg. In addition, the ED50 in data set [1] came out at 8 mg/kg.
